Laboratory results as given in PubChem BioAssay (NCI).
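Values below derive from 48-hour exposures of cells grown in 96-well plates, with endpoints linearly interpolated between the two concentrations bracketing the appropriate inhibition level. Here, GI50 denotes the concentration required for 50% inhibition of growth. TGI denotes the concentration required for complete inhibition of growth.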

What was measured:
Test in all cases: inhibition of tumour cell growth, NCI panel, 48 h
[1] = test system: SK-MEL-2 melanoma
[2] = test system: UO-31 renal
[3] = test system: TK-10 renal
[4] = test system: MDA-MB-468 breast
[5] = test system: SNB-19 CNS
[6] = test system: OVCAR-8 ovarian
[7] = test system: OVCAR-4 ovarian
[8] = test system: KM12 colon
[9] = test system: 786-0 renal
[10] = test system: OVCAR-5 ovarian
[11] = test system: UACC-62 melanoma
[12] = test system: HT29 colon
[13] = test system: HCC-2998 colon
[14] = test system: SN12C renal
[15] = test system: RPMI-8226 leukemia
[16] = test system: PC-3 prostate
[17] = test system: MDA-MB-231 breast
[18] = test system: HOP-62 NSCLC
[19] = test system: CAKI-1 renal
[20] = test system: SK-MEL-5 melanoma
[21] = test system: HCT-116 colon
[22] = test system: IGROV1 ovarian
[23] = test system: SW-620 colon
[24] = test system: HS 578T breast
[25] = test system: EKVX NSCLC
[26] = test system: CCRF-CEM leukemia
[27] = test system: MCF7 breast
[28] = test system: SF-295 CNS
[29] = test system: ACHN renal

O=c1cc(-c2ccccc2)oc2cc(OCCCNCc3ccccc3)cc(O)c12
GI50 [1]: 6.43 µM
TGI [1]: 19.7 µM
GI50 [2]: 1.15 µM
TGI [2]: 8.66 µM
GI50 [3]: 14.8 µM
TGI [3]: 28.8 µM
GI50 [4]: 2.08 µM
TGI [4]: 5.21 µM
GI50 [5]: 10.4 µM
TGI [5]: 31.2 µM
GI50 [6]: 10.2 µM
TGI [6]: > 100 µM
GI50 [7]: 2.78 µM
TGI [7]: 8.84 µM
GI50 [8]: 3.77 µM
TGI [8]: 14.5 µM
GI50 [9]: 2.98 µM
TGI [9]: 15.5 µM
GI50 [10]: 10 µM
TGI [10]: 22.9 µM
GI50 [11]: 1.77 µM
TGI [11]: 3.49 µM
GI50 [12]: 3.15 µM
TGI [12]: 27.3 µM
GI50 [13]: 1.91 µM
TGI [13]: 3.64 µM
GI50 [14]: 4.19 µM
TGI [14]: 24.6 µM
GI50 [15]: 3.46 µM
TGI [15]: > 100 µM
GI50 [16]: 5.05 µM
TGI [16]: 32.4 µM
GI50 [17]: 2.89 µM
TGI [17]: 12.9 µM
GI50 [18]: 11.5 µM
TGI [18]: 44.4 µM
GI50 [19]: 2.41 µM
TGI [19]: 11 µM
GI50 [20]: 5.04 µM
TGI [20]: 16.9 µM
GI50 [21]: 3.72 µM
TGI [21]: 27.7 µM
GI50 [22]: 3.37 µM
TGI [22]: 15.7 µM
GI50 [23]: 5.98 µM
TGI [23]: 21.1 µM
GI50 [24]: 4.08 µM
TGI [24]: 33.7 µM
GI50 [25]: 13.8 µM
TGI [25]: 36.4 µM
GI50 [26]: 5.29 µM
TGI [26]: > 100 µM
GI50 [27]: 2.61 µM
TGI [27]: 10.3 µM
GI50 [28]: 4.72 µM
TGI [28]: 18 µM
GI50 [29]: 3.42 µM
TGI [29]: 14.2 µM
